# Experimental data as given in US5654289A, “Disaccharide derivative” (Suntory Limited, priority 1993, dated 1997).
# Like-named read-outs stand apart in the source and are kept apart here.
# Key:
# [1] = test system: BALB/c mouse spleen cells; experiment: Mitogenic activity (3H-thymidine incorporation into mouse spleen cells)
# rabbits = experiment: Pyrogenicity test; settings: i.v., rabbit, feverish = rise of 0.6° C. or more
# Protocol: In this test, rabbits were used and 5 ml/kg of the test compound diluted to a definite concentration with physiological saline was intravenously injected into each animal. Then the rectal temperature was measured. Rabbits showing an increase in the bodily temperature by 0.6° C. or more were referred to as feverish.
# TNF-α = experiment: Cytokine inducing activity: TNF-α (ELISA), human peripheral blood monocytes; format: cell-based; settings: 24 hours
# Protocol: (§1) The cytokine inducing activity was tested by using an ELISA system for assaying TNF-α (manufactured by Amersham Japan) and another ELISA system for assaying IL-1β (manufactured by Otsuka Pharmaceutical Co., Ltd.). […] Then the cytokines in the culture supernatant were assayed by the ELISA method.
# IL-1β = experiment: Cytokine inducing activity: IL-1β (ELISA), human peripheral blood monocytes; format: cell-based
# Protocol: as §1
# [2] = test system: vesicular stomatitis virus (VSV); format: cell-based, vesicular stomatitis virus; mouse L929 cells
# [3] = test system: BALB/c mouse spleen cells; experiment: Polyclonal B cell activation activity (ELISPOT); settings: 72 hours
# male rabbit = experiment: Local Shwartzman reaction; format: in vivo; settings: 100 μg/site intradermal, elicitation with Salmonella minnesota LPS i.v.
# Protocol: This test was carried out in the following manner. The test compound, which had been diluted to a definite concentration with 0.2 ml of physiological saline, was intradermally injected into a male rabbit. After 24 hours, 100 μg/ml/kg of Salmonella minnesota 9700 LPS-W (manufactured by Difco) was intravenously injected into the animal for elicitation. After 4 hours, intradermal hemorrhage was observed.
# [4] = test system: Moloney virus-induced lymphoma YAC-1; experiment: NK (natural killer) activity of spleen cells from treated mice against YAC-1 (51Cr release); format: in vivo, mouse (BALB/c)
# Protocol: This test was carried out in the following manner. […] On the day 14, the spleen cells of the animal were collected. To the prepared spleen cells (1×10^6 cells/0.1 ml), target cells (Moloney virus-inducedlymphoma YAC-1; 2×10^4 cells/ml) labeled with ^51 Cr were added followed by the incubation for 4 hours. […] After the completion of the incubation, 0.1 ml of the culture supernatant was collected and the amount (radiation dose) of ^51 Cr liberated due to the damage in the target cells was measured. Then the NK activity (%) was calculated by substituting each value in accordance with the following formula. NK Activity (%)={(Radioactivity of test group-Radioactivity of minimum free control group)(cpm)/(Radioactivity maximum free control group-Radioactivity of minimum free control group)(cpm)}
# [5] = test system: methylcholanthrene-induced fibrosarcoma (Meth A); experiment: Antitumor activity (macrophage cytostatic activity on Meth A fibrosarcoma); format: cell-based, mouse (BALB/c)
# Protocol: This test was effected by examining a cytostatic activity on methylcholanthrene-induced fibrosarcoma (Meth A). Namely, adherent cells (macrophages) were collected from spleen cells of a BALB/c mouse. […] Then the ^3 H-thymidine-uptake suppression ratio was calculated by substituting the obtained values in accordance with the following formula and the result was expressed as the cytostatic activity on macrophages.
# Cytostatic Activity (%)={1-(Radioactivity of macrophages and target cells-Radioactivity of macrophages alone)(cpm)/(Radioactivity of target cells along)}×100
# male C57BL mouse = experiment: Galactosamine-loaded lethal toxicity test; format: in vivo; settings: 16 mg D-galactosamine/HCl i.p., compound i.v., 24 hours
# Protocol: The galactosamine-loaded lethal toxicity was determined by using the following experimental system.
# 16 mg of D-galactosamine/HCl was intraperitoneally administered to a male C57BL mouse aged 8 weeks. Immediately thereafter, the compound of the present invention was intravenously injected into the animal and the conditions were observed after 24 hours.
# anti-BSA IgG antibody = experiment: Adjuvant activity (serum anti-BSA IgG by ELISA); format: in vivo, mouse (BALB/c); settings: 100 μg compound with 100 μg BSA in FIA, s.c., days 0 and 28; day 5 after booster; BSA alone = 1.00
# Protocol: In this test, male BALB/c mice (each group having 6 animals) were used. On the days 0 and 28, 100 μg of bovine serum albumin (BSA) containing 100 μg of the compound of the present invention on the comparative compound or no such a compound was subcutaneously injected into each animal in the form of a water-in-oil type emulsion in Freund's incomplete adjuvant (FIA). On the day 5 following the booster, the level of anti-BSA IgG antibody formed in the serum was determined by the ELISA method. […] [formula]
# [6] = test system: IL-1 receptor antagonist (IL-1ra); experiment: IL-1 receptor antagonist (IL-1ra) production (ELISA), human peripheral blood monocytes; format: cell-based
# [7] = test system: Tachypleus tridentatus lysate; settings: Pregel reagent, gel formation
# [8] = Mus musculus, read-out: Mitogen activity, Stimulation Index
smiles,measurement,setting,value
CCCCCCCCCCCCCCCC(=O)OC(CCCCCCCCCCCC(C)C)CC(=O)NC1C(OCC2OC(OP(=O)(O)O)C(NC(=O)CC(O)CCCCCCCCCCCC(C)C)C(O)C2O)OC(CO)C(O)C1O (stereo not drawn) [Invention compound],fold induction at 5 µg/mL,[1]; [8],4.17
same,fold induction at 50 µg/mL,[1]; [8],7.46
same,Pyrogenicity,rabbits; dose of 10 μg/kg,showed no pyrogenicity
same,activity of inducing the production of TNF-α,TNF-α,little activity
same,suppression of the production of IL-1β induced by LPS originating in Escherichia coli,"IL-1β; added simultaneously, 50 times as much as LPS",suppressed the production of IL-1β
same,suppression of the production of IL-1β induced by compound 506,"IL-1β; added simultaneously, 50 times as much as synthetic lipid A 506",suppressed the production of IL-1β
same,activity of inducing the production of IL-1β,"IL-1β; human peripheral blood monocytes, 24 hours",little activity
same,Antiviral activity (reciprocal of the dilution ratio to the 1 mg/ml sample wherein L929 cells survived at a ratio of 50%),"[2]; VSV 100 TCID50/0.1 ml on L929 cells, 24 hours",4.9
same,"Polyclonal B cell activation activity, Stimulation Index",[3]; 10 μg per 2.5×10^6 cells,22.0
same,"Polyclonal B cell activation activity, Stimulation Index",[3]; 100 μg per 2.5×10^6 cells,30.3
same,"Local Shwartzman reaction, hemorrhage",male rabbit,no hemorrhage
same,NK activity,"[4]; 100 μg i.v. on days 0 and 7, spleen cells collected day 14, BALB/c mouse, YAC-1 targets, 4 hours",50.1%
same,"NK activity, comparison with synthetic lipid A 506","[4]; 100 μg i.v. on days 0 and 7, in words",comparable to the synthetic lipid A 506
same,inhibition at 10 µg/mL,"[5]; 24 h, 10 μg/ml, Meth A with mouse macrophages",58.6%
same,inhibition at 100 µg/mL,"[5]; 24 h, 100 μg/ml, Meth A with mouse macrophages",64%
same,"Cytostatic activity, comparison with synthetic lipid A 506",[5]; in words,comparable to that of the synthetic lipid A 506
same,"Galactosamine-loaded lethal toxicity, LD50",male C57BL mouse,> 10 µg
same,"Adjuvant activity, Stimulation Index",anti-BSA IgG antibody,2.48
same,"production of IL-1ra in the culture supernatant, compared with synthetic lipid A 506",[6],in a larger amount than the synthetic lipid A 506 did
same,"Limulus test, minimum effective dose relative to that of the synthetic lipid A 506",[7],"1,000 times"
"CCCCCCCCCCCCCC(=O)OC(CCCCCCCCCCC)CC(=O)O[C@@H]1[C@@H](NC(=O)CC(CCCCCCCCCCC)OC(=O)CCCCCCCCCCC)[C@H](OC[C@H]2O[C@H](OP(=O)(O)O)[C@H](NC(=O)CC(O)CCCCCCCCCCC)[C@@H](OC(=O)CCCCCCCCCCCCC)[C@@H]2O)O[C@H](CO)[C@H]1OP(=O)(O)O (stereo partly drawn) [Comparative compound 506, 6-O-[2-deoxy-2-(3-dodecanoyloxytetradecanoylamino)-3-O-(3-tetra-decanoyloxytetradecanoyl)-4-O-phosphono-β-D-glucopyranosyl]-2-deoxy-2-(3-hydroxytetradecanoylamino)-3-O-tetradecanoyl-1-O-phosphono-α-D-glucopyranose, reference compound]","Mitogen activity, Stimulation Index",[1]; 50 μg/ml,6.28
same,Pyrogenicity,rabbits; dose of 0.01 μg,showed pyrogenicity
same,Antiviral activity (reciprocal of the dilution ratio to the 1 mg/ml sample wherein L929 cells survived at a ratio of 50%),[2],2.2
same,"Polyclonal B cell activation activity, Stimulation Index",[3]; 10 μg per 2.5×10^6 cells,15.7
same,"Polyclonal B cell activation activity, Stimulation Index",[3]; 100 μg per 2.5×10^6 cells,20.7
same,"Galactosamine-loaded lethal toxicity, LD50",male C57BL mouse,0.0079 µg
same,"Adjuvant activity, Stimulation Index",anti-BSA IgG antibody,1.99
